From patent US7307063B2, “Melanocortin metallopeptides for treatment of sexual dysfunction” (Palatin Technologies, Inc., priority 2001, dated 2007)
Non-standard residues stand in square brackets, D forms with d. No end group written: not given here. *: point of attachment. Bip = N[C@@H](Cc1ccc(-c2ccccc2)cc1)C(=O)O; dBip = N[C@H](Cc1ccc(-c2ccccc2)cc1)C(=O)O; Ac6c = NC1(C(=O)O)CCCCC1; Heptanoyl = CCCCCCC(=O)*; Nle = CCCC[C@H](N)C(=O)O; Ac5c = NC1(C(=O)O)CCCC1; Bn = c1ccc(C*)cc1

Assays:
[1] = molecular target: T1, MC4-R (Homo sapiens, UniProt P32245); test: Competitive binding assay: inhibition of 125I-NDP-α-MSH binding to HEK-293 membranes with cloned human receptor subtype 4; details: Table 6, mean of triplicate
T1 construct: expressed in transfected cells; host or cells: HEK-293
T1 sequence (P32245 whole entry): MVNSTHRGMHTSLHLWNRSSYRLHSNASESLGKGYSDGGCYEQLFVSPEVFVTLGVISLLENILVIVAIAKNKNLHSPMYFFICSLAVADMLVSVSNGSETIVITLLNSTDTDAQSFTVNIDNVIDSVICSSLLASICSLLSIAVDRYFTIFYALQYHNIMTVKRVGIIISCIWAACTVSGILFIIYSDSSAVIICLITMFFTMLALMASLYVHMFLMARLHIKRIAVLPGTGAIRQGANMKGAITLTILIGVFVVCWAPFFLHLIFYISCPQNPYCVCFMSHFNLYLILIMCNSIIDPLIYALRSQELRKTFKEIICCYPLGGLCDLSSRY
Method: (§1) Rhenium-complexed metallopeptides of the formulas given in Table 1 were prepared, with the metallopeptides complexed with rhenium using the rhenium transfer agent ReOCl3(PPh3)2 in the presence of 1,8-Diazabicyclo[5,4,0] undec-7-ene as a base, as disclosed in International Application PCT/US00/16396, filed Jun. 14, 2000, Melanocortin Metallopeptide Constructs, Combinatorial Libraries and Applications, incorporated by reference herein. Affinities of compounds were measured using membranes from HEK-293 cells containing cloned human melanocortin receptor subtypes 3, 4 and 5. MC1-R membranes were isolated from B16—F10 mouse melanoma cells. The assay tube also contained a chosen concentration of the test peptide of this invention, complexed to a rhenium metal ion as indicated, for determining its efficacy in inhibiting the binding of ^125I-NDP-α-MSH to its receptor. Non-specific binding was measured by complete inhibition of binding of ^125I-NDP-α-MSH in the assay with the presence of 1 μM α-MSH. 100% specific binding was defined as the difference in radioactivity (cpm) bound to cell membranes in the absence and presence of 1 μM α-MSH. The cpm obtained in presence of test compounds were normalized with respect to 100% specific binding to determine the percent inhibition of ^125I-NDP-α-MSH binding.
(§2) Peptide sequences set forth in Table 6 were prepared using conventional synthetic means. The resulting sequences were rhenium-complexed to form metallopeptides, with the metallopeptides complexed with rhenium using the rhenium transfer agent ReOCl3(PPh3)2 in the presence of 1,8-Diazabicyclo[5,4,0] undec-7-ene as a base. Percent inhibition was determined as in Example 1 using the Re-complexed metallopeptides, using the same methods as described therein. All measures are means of triplicate determinations.

[2] = molecular target: T2, MC1-R (Mus musculus, UniProt Q01727); test: Competitive binding assay: inhibition of 125I-NDP-α-MSH binding to membranes from B16-F10 mouse melanoma cells; details: Table 6, mean of triplicate
T2 construct: MC1-R membranes were isolated from B16—F10 mouse melanoma cells; endogenous in cells; host or cells: B16-F10 mouse melanoma cells
T2 sequence (Q01727 whole entry): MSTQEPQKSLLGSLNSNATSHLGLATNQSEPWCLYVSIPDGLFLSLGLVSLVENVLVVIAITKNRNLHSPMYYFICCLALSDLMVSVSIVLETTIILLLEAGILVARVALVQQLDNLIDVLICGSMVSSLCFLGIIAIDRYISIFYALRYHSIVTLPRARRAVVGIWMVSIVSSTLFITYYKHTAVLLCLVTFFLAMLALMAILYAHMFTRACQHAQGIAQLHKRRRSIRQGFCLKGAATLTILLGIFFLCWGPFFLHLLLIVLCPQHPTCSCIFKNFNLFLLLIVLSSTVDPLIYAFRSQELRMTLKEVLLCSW
Method: as §1, §2

[3] = molecular target: T3, hMC5-R (Homo sapiens, UniProt P33032); test: Competitive binding assay: inhibition of 125I-NDP-α-MSH binding to HEK-293 membranes with cloned human receptor subtype 5; details: Table 6; 1 μM; mean of triplicate
T3 construct: expressed in transfected cells; host or cells: HEK-293
T3 sequence (P33032 whole entry): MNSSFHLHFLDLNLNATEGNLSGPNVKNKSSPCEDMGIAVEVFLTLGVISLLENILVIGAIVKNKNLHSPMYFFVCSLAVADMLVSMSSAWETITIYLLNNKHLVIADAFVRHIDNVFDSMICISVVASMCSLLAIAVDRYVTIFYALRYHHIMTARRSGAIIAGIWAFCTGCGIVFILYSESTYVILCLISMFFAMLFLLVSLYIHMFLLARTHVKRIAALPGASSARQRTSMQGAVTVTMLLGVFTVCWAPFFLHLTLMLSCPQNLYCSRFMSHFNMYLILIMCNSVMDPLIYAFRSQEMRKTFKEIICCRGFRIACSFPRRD
Method: as §1, §2

[4] = molecular target: T4, hMC2-R (Homo sapiens, UniProt P41968); test: Competitive binding assay of additional compounds, Table 6 hMC2-R; details: 1 μM, mean of triplicate
T4 construct: expressed in transfected cells; host or cells: HEK-293
T4 sequence (P41968 whole entry): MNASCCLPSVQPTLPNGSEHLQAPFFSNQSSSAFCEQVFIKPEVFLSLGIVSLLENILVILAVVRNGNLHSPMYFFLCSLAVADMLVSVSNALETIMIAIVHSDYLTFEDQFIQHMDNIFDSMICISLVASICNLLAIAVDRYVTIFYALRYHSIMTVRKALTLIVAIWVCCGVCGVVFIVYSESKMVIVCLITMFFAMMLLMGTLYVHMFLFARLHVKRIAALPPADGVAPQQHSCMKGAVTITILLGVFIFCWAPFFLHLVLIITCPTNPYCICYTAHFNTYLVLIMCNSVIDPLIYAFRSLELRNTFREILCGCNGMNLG
Method: [The source words this procedure for another target and reports this target under the same test.] as §1, §2

[5] = 1 μM, listed as 3′-Bromo phenyl acetyl-Arg-Arg-D-Phe(4′-Cl)-Cys-Nal 2′-NH2, 1 µM
[6] = 1 μM, listed as Hept-Ser(Bzl)-D-Nal 2′-Arg-Nal 2′-Cys-NH2, 1 µM

Substance	% Inhibition of Binding hMC4-R ([1]; 1 μM) [%]	% Inhibition of Binding MC1-R ([2]; 1 μM) [%]	% Inhibition of Binding hMC2-R [4] [%]	also measured
1-amino-1-cyclohexane carboxyl-D-Phe-Arg-Cys-Trp-NH2 ([Ac6c][dF]RCW-NH2; N-terminus assumed; SMILES N=C(N)NCCC[C@H](NC(=O)[C@@H](Cc1ccccc1)NC(=O)C1(N)CCCCC1)C(=O)N[C@@H](CS)C(=O)N[C@@H](Cc1c[nH]c2ccccc12)C(N)=O)	14	92	0	% Inhibition of Binding hMC5-R [3]: 65%
1-amino-1-cyclohexane carboxyl-D-Phe-Arg-Trp-Cys-NH2 ([Ac6c][dF]RWC-NH2; N-terminus assumed; SMILES N=C(N)NCCC[C@H](NC(=O)[C@@H](Cc1ccccc1)NC(=O)C1(N)CCCCC1)C(=O)N[C@@H](Cc1c[nH]c2ccccc12)C(=O)N[C@@H](CS)C(N)=O)	1	11	0	% Inhibition of Binding hMC5-R [3]: 16%
1-amino-1-cyclopentane carboxyl-D-Phe-Arg-Cys-Trp-NH2 ([Ac5c][dF]RCW-NH2; N-terminus assumed; SMILES N=C(N)NCCC[C@H](NC(=O)[C@@H](Cc1ccccc1)NC(=O)C1(N)CCCC1)C(=O)N[C@@H](CS)C(=O)N[C@@H](Cc1c[nH]c2ccccc12)C(N)=O)	16	78	0	% Inhibition of Binding hMC5-R [3]: 60%
3′-Br Phenyl acetyl-Arg-Arg-D-Phe(4′-Cl)-Cys-Nal 2′-NH2	96	90	95	% Inhibition of Binding hMC4-R [1, 5]: 94%; % Inhibition of Binding MC1-R [2, 5]: 79%; % Inhibition of Binding hMC2-R ([4]; listed as 3′-Bromo phenyl acetyl-Arg-Arg-D-Phe(4′-Cl)-Cys-Nal 2′-NH2, 1 µM): 55%
Ac-[Nle]AH[dBip]RCW-NH2		72	100	
Ac-[Nle]AH[dBip]RC[Bip]-NH2		77	100	
Ac-[Nle]AH[dBip]R[Bip]C-NH2		95	100	
Ac-[Nle]AH[dF]R[Bip]C-NH2		35	100	
Heptanoyl-S(Bn)[dBip]R[Bip]C-NH2		30	0	
Heptanoyl-Ser(Bzl)-D-Nal 2′-Arg-Nal 2′-Cys-NH2	91	28	41	% Inhibition of Binding hMC4-R [1, 6]: 92%; % Inhibition of Binding MC1-R [2, 6]: 25%; % Inhibition of Binding hMC2-R ([4]; listed as Hept-Ser(Bzl)-D-Nal 2′-Arg-Nal 2′-Cys-NH2, 1 µM): 62%
Heptanoyl-Ser(Bzl)-D-Phe(4′-Cl)-Arg-Bip-Cys-NH2		65	5	
Heptanoyl-Ser(Bzl)-D-Phe(4′-Cl)-Arg-Phe(3′-Cl)-Cys-NH2				% Inhibition of Binding hMC4-R ([1]; 0.1 μM): 67%; % Inhibition of Binding MC1-R ([2]; 0.1 μM): 27%
Heptanoyl-Ser(Bzl)-D-Phe(4′-Cl)-Arg-Phe(3′-F)-Cys-NH2				% Inhibition of Binding hMC4-R ([1]; 0.1 μM): 43%; % Inhibition of Binding MC1-R ([2]; 0.1 μM): 19%
Heptanoyl-Ser(Bzl)-D-Phe(4′-Cl)-Arg-Phe-Cys-NH2				% Inhibition of Binding hMC4-R ([1]; 0.1 μM): 32%; % Inhibition of Binding MC1-R ([2]; 0.1 μM): 11%
Heptanoyl-Ser(Bzl)-D-Phe(4′-Cl)-Arg-Tyr(3′,5′-Di-l)-Cys-NH2				% Inhibition of Binding hMC4-R ([1]; 0.1 μM): 85%; % Inhibition of Binding MC1-R ([2]; 0.1 μM): 10%
Heptanoyl-Ser(Bzl)-D-Phe(4′-Cl)-Arg-Tyr(3′-l)-Cys-NH2				% Inhibition of Binding hMC4-R ([1]; 0.1 μM): 92%; % Inhibition of Binding MC1-R ([2]; 0.1 μM): 12%
Heptanoyl-Ser(Bzl)-D-Phe(4′-Cl)-Arg-Tyr-Cys-NH2				% Inhibition of Binding hMC4-R ([1]; 0.1 μM): 13%; % Inhibition of Binding MC1-R ([2]; 0.1 μM): 6%
Heptanoyl-Ser(Bzl)-D-Phe(4′-Cl)-Gly-Nal 2′-Cys-Lys-NH2	5	46		
HyP(Bzl)-D-Phe(2′-Cl)-Nal 2′-Cys-NH2	85	57		
NH2-(CH2)6-CO-Ser(Bzl)-D-Phe(4′-Cl)-Arg-D-Trp-Cys-NH2	97	48		
Ph(CH2)2-CO-D-Phe(2′-Cl)-Lys-Nal 2′-Cys-NH2	26	0		
Ph(CH2)3-CO-D-Phe(2′-Cl)-Lys-Nal 2′-Cys-NH2	33	17		
Ph(CH2)-CO-D-Phe(2′-Cl)-Lys-Nal 2′-Cys-NH2	22	11		
PhCO-D-Phe(2′-Cl)-Lys-Nal 2′-Cys-NH2	41	60		
Phe-Arg-Trp-Cys-Lys-NH2 (FRWCK-NH2; not fully specified; printed as Phe-Arg-Trp-Cys-Lys-NH2)	64	53		
Ser(Bzl)-D-Phe(4′-Cl)-Arg-D-Trp-Cys-NH2	82	65		
Ser(Bzl)-D-Phe(4′-Cl)-Arg-Nal 2′-Cys-Lys-NH2				% Inhibition of Binding hMC4-R ([1]; 0.1 μM): 95%; % Inhibition of Binding MC1-R ([2]; 0.1 μM): 33%
Ser(Bzl)-D-Phe(4′-Cl)-Arg-Nal 2′-Cys-NH2	99	35		

Continued, in another order:

% Inhibition of Binding hMC4-R ([1]; 1 μM) [%]	% Inhibition of Binding MC1-R ([2]; 1 μM) [%]	% Inhibition of Binding hMC2-R [4] [%]	Substance	also measured
0	23	7	1-amino-1-cyclopentane carboxyl-D-Phe-Arg-Trp-Cys-NH2 ([Ac5c][dF]RWC-NH2; N-terminus assumed; SMILES N=C(N)NCCC[C@H](NC(=O)[C@@H](Cc1ccccc1)NC(=O)C1(N)CCCC1)C(=O)N[C@@H](Cc1c[nH]c2ccccc12)C(=O)N[C@@H](CS)C(N)=O)	% Inhibition of Binding hMC5-R [3]: 14%
	99	100	Ac-[Nle]AH[dBip]RWC-NH2	
	82	100	Ac-[Nle]AH[dF]RC[Bip]-NH2	
	84	0	Heptanoyl-S(Bn)[dBip]RWC-NH2	
92	4		Heptanoyl-Ser(Bzl)-D-Phe(4′-Cl)-Arg-Thr(Bzl)-Cys-NH2	
0	19		Heptanoyl-Ser(Bzl)-D-Phe(4′-Cl)-Arg-Tyr(2′,6′-diCl-Bzl)-Cys-NH2	
85	16		Heptanoyl-Ser(Bzl)-D-Phe(4′-Cl)-Arg-Tyr(Bzl)-Cys-NH2	
71	88		Heptanoyl-[dP][dF]RWCK-NH2	
24	32		Phe-Arg-Trp-Cys-Trp-NH2 (FRWCW-NH2; not fully specified; printed as Phe-Arg-Trp-Cys-Trp-NH2)	
50	33		Ser(Bzl)-D-Phe(2′-Cl)-Lys-Nal 2′-Cys-NH2	
42	23		[dF]RW[dC]K-NH2	
45	53		[dF]RW[dC]W-NH2	
55	66		[dF]R[dW]CK-NH2	
32	37		[dF]R[dW]CW-NH2	
